Read-outs that look alike come from different tables or passages of the source.
Legend:
[1] = system: human prostate adenocarcinoma PC3 cells; experiment: Growth inhibition test (MTS); format: cell-based; conditions: PC-3; 72 hours
Protocol: (§1) Two thousand cells of human prostate adenocarcinoma PC3 were inoculated into each well of a 96-well microplate (manufactured by Corning Corp.), and using F12K (Ham's F12:RPMI 8226 1:1) medium (culture medium) containing 10% fetal calf serum (FCS). The same day, a dimethyl sulfoxide (DMSO) solution of each test compound prepared in a concentration of 10 mmol/L was further diluted with DMSO to the desired concentrations (0.1, 0.5, 1, 2.5, 5 and 10 micromol/L), and the diluted solution was added to each well. The individual wells were further cultured in 5% carbon dioxide at 37° C. for 72 hours. After completion of the culture, 10 μl MTS (3-(4,5-Dimethyl-2-thiazolyl)-5-(carboxymethoxyphenyl)-2-(4-sulfophenyl)-2H-tetrazolium, inner salt assay (CellTiter96® AQueous One Solution Cell Proliferation Assay, Promega) was added to each well, and culturing was performed in 5% carbon dioxide at 37° C. for 2 hours. Using a microplate spectrophotometer (Synergy 2 multi-mode microplate reader (BioTek)), the absorbance of each well was measured at 490 nm. The value for cells not incorporated with a test compound was designated as 100%. By comparing these values with the absorbance difference obtained at the well in which each test compound was added, the cell viability (% viability) after treatment with the test compound was calculated.

[2] = system: human prostate carcinoma DU145 cells; experiment: Growth inhibition test (MTS); format: cell-based; conditions: 72 hours
Protocol: as §1, with “carcinoma DU145” for “adenocarcinoma PC3”, “DMEM” for “F12K (Ham's F12:RPMI 8226 1:1)”, “innersalt” for “inner salt”

[3] = system: human colorectal adenocarcinoma SW480 cells; experiment: Growth inhibition test (MTS); format: cell-based; conditions: 72 hours
Protocol: as §1, with “colorectal” for “prostate”, “SW480” for “PC3”, “DMEM/Ham's F121:1” for “F12K (Ham's F12:RPMI 8226 1:1)”, “5%” for “10%”

[4] = system: human chronic myelogenous leukemia MEG-01 cells; experiment: Growth inhibition test (MTS); format: cell-based; conditions: MEG01; 72 hours
Protocol: as §1, with “Ten” for “Two”, “chronic myelogenous leukemia MEG-01” for “prostate adenocarcinoma PC3”, “Corp.)” for “Corp.), and”, “RPMI” for “F12K (Ham's F12:RPMI”, “8226” for “8226 1:1)”

CK2α = CK2α (Homo sapiens, UniProt P68400); experiment: Radiometric kinase assay (HotSpot)
Chain of CK2α (P68400 whole entry): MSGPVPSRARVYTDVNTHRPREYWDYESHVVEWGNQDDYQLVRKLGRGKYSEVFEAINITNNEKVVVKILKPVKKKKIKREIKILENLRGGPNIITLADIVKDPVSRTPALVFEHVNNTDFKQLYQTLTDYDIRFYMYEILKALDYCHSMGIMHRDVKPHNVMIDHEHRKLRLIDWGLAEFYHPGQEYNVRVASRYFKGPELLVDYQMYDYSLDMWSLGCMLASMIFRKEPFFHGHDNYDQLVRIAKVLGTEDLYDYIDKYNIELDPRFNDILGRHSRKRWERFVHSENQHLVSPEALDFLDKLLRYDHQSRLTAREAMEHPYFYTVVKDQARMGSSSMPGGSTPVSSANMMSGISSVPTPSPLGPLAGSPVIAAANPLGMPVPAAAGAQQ
Protocol: Kinase assays were performed at Reaction Biology Corporation (www.reactionbiology.com, Malvern Pa.) using the “HotSpot” assay platform. This assay platform is based on a radiometric filtration binding assay and is considered as the “gold standard” to which non-radiometric methods are compared. In this assay format, the kinase reaction is performed in the presence of 32 P-γ-ATP or 33 P-γ-ATP, followed by binding of the final radioisotope labeled peptide product to filters after which unreacted phosphate is washed away and the levels of phosphorylated peptide are measured.

[5] = system: human acute promyelocytic leukemia HL-60 cells; experiment: Growth inhibition test (MTS); format: cell-based; conditions: 72 hours
Protocol: as §1, with “Ten” for “Two”, “acute promyelocytic leukemia HL-60” for “prostate adenocarcinoma PC3”, “Corp.)” for “Corp.), and”, “RPMI” for “F12K (Ham's F12:RPMI”, “8226” for “8226 1:1)”

[6] = read-out: Inhibitory activity (IC50 in nM) in radiometric cell free assay, CK2α, ATP 1 μM, peptide 20 μM

## Brc1c(Br)c(Br)c2c(Br)n[nH]c2c1Br [Compound K64, reference compound]
[1]
  Cytotoxicity in MTS assay (ED50): >10 µM
[2]
  Cytotoxicity in MTS assay (ED50): >10 µM
[3]
  Cytotoxicity in MTS assay (ED50): 9.13 µM
[4]
  Cytotoxicity in MTS assay (ED50): >10 µM
CK2α; [6]
  IC50: 637 nM

## Brc1c(Br)c(Br)c2[nH]cnc2c1Br [TBI, reference compound]
[1]
  Cytotoxicity in MTS assay (ED50): >10 µM
[2]
  Cytotoxicity in MTS assay (ED50): >10 µM
[3]
  Cytotoxicity in MTS assay (ED50): 7.21 µM
[4]
  Cytotoxicity in MTS assay (ED50): >10 µM

## Brc1c(Br)c(Br)c2[nH]c(NCCN3CCCCC3)nc2c1Br [Compound 13, 4,5,6,7-tetrabromo-N-(2-(piperidin-1-yl)ethyl)-1H-benzo[d]imidazol-2-amine]
[1]
  Cytotoxicity in MTS assay (ED50): 5.19 µM
[2]
  Cytotoxicity in MTS assay (ED50): 4.1 µM
[4]
  Cytotoxicity in MTS assay (ED50): 4.37 µM
[5]
  Cytotoxicity in MTS assay (ED50): 3.29 µM
CK2α
  IC50: 2260 nM

## NCCCNc1nc2c(Br)c(Br)c(Br)c(Br)c2[nH]1 [Compound 11, N-(3-aminopropyl)-4,5,6,7-tetrabromo-1H-benzo[d]imidazol-2-amine]
[1]
  Cytotoxicity in MTS assay (ED50): 7.32 µM
[2]
  Cytotoxicity in MTS assay (ED50): 7.62 µM
[3]
  Cytotoxicity in MTS assay (ED50): 3.46 µM
[4]
  Cytotoxicity in MTS assay (ED50): 7.85 µM
[5]
  Cytotoxicity in MTS assay (ED50): 6.12 µM
CK2α
  IC50: 1020 nM

## CN(C)c1nc2c(Br)c(Br)c(Br)c(Br)c2n1CC(=O)O [Compound K66, reference compound]
[1]
  Cytotoxicity in MTS assay (ED50): >10 µM
[2]
  Cytotoxicity in MTS assay (ED50): >10 µM
[3]
  Cytotoxicity in MTS assay (ED50): >10 µM
[4]
  Cytotoxicity in MTS assay (ED50): >10 µM
CK2α; [6]
  IC50: 206 nM

## Brc1c(Br)c(Br)c2[nH]nnc2c1Br [TBB, reference compound]
[1]
  Cytotoxicity in MTS assay (ED50): >10 µM
[2]
  Cytotoxicity in MTS assay (ED50): >10 µM
[3]
  Cytotoxicity in MTS assay (ED50): >10 µM
[4]
  Cytotoxicity in MTS assay (ED50): >10 µM

## CN1CCN(c2nc3c(Br)c(Br)c(Br)c(Br)c3[nH]2)CC1 [Compound 21, 4,5,6,7-tetrabromo-2-(4-methylpiperazin-1-yl)-1H-benzo[d]imidazole]
[1]
  Cytotoxicity in MTS assay (ED50): >10 µM
[2]
  Cytotoxicity in MTS assay (ED50): 9.54 µM
[5]
  Cytotoxicity in MTS assay (ED50): >10 µM
CK2α
  IC50: 1830 nM

## Brc1c(Br)c(Br)c2[nH]c(NCCN3CCOCC3)nc2c1Br [Compound 16, 4,5,6,7-tetrabromo-N-(2-morpholinoethyl)-1H-benzo[d]imidazol-2-amine]
[1]
  Cytotoxicity in MTS assay (ED50): >10 µM
[2]
  Cytotoxicity in MTS assay (ED50): 8.64 µM
[5]
  Cytotoxicity in MTS assay (ED50): >10 µM
CK2α
  IC50: 6880 nM

## Brc1c(Br)c(Br)c2[nH]c(N3CCNCC3)nc2c1Br [Compound 20, 4,5,6,7-tetrabromo-2-(piperazin-1-yl)-1H-benzo[d]imidazole]
[1]
  Cytotoxicity in MTS assay (ED50): 6.61 µM
[2]
  Cytotoxicity in MTS assay (ED50): 9.27 µM
[3]
  Cytotoxicity in MTS assay (ED50): 4.91 µM
[4]
  Cytotoxicity in MTS assay (ED50): 4.49 µM
[5]
  Cytotoxicity in MTS assay (ED50): 7.88 µM
CK2α
  IC50: 132 nM

## CN(C)c1nc2c(Br)c(Br)c(Br)c(Br)c2[nH]1 [DMAT, reference compound]
[1]
  Cytotoxicity in MTS assay (ED50): >10 µM
[2]
  Cytotoxicity in MTS assay (ED50): >10 µM
[4]
  Cytotoxicity in MTS assay (ED50): 8.91 µM
[5]
  Cytotoxicity in MTS assay (ED50): >10 µM

## Brc1c(Br)c(Br)c2[nH]c(NCCN3CCCC3)nc2c1Br [Compound 14, 4,5,6,7-tetrabromo-N-(2-(pyrrolidin-1-yl)ethyl)-1H-benzo[d]imidazol-2-amine]
[1]
  Cytotoxicity in MTS assay (ED50): 5.47 µM
[2]
  Cytotoxicity in MTS assay (ED50): 3.14 µM
[4]
  Cytotoxicity in MTS assay (ED50): 3.35 µM
[5]
  Cytotoxicity in MTS assay (ED50): 2.04 µM
CK2α
  IC50: 833 nM

— patent US20110230481A2, “DERIVATIVES OF TETRABROMOBENZIMIDAZOLE, A PROCESS FOR THE PREPARATION THEREOF, A PHARMACEUTICAL COMPOSITION COMPRISING THE SAME, A METHOD OF USING THE SAME, A METHOD FOR MODULATING OR REGULATING SERINE/THREONINE KINASES, AND SERINE/THREONINE KINASES MODULATING AGENT” (SELVITA S.A., priority 2009, published 2011)
